# Source: ChEMBL document CHEMBL1144263, “Synthesis and acetylcholinesterase inhibition of derivatives of huperzine B” (Bioorg Med Chem Lett, 2005)
# Columns and labels:
# Acetylcholinesterase = target: T1, Acetylcholinesterase (Rattus norvegicus, UniProt P37136); assay: Inhibitory concentration against acetylcholinesterase from rat cortex homogenate by ellman method was determined
# T1 sequence (P37136 whole entry): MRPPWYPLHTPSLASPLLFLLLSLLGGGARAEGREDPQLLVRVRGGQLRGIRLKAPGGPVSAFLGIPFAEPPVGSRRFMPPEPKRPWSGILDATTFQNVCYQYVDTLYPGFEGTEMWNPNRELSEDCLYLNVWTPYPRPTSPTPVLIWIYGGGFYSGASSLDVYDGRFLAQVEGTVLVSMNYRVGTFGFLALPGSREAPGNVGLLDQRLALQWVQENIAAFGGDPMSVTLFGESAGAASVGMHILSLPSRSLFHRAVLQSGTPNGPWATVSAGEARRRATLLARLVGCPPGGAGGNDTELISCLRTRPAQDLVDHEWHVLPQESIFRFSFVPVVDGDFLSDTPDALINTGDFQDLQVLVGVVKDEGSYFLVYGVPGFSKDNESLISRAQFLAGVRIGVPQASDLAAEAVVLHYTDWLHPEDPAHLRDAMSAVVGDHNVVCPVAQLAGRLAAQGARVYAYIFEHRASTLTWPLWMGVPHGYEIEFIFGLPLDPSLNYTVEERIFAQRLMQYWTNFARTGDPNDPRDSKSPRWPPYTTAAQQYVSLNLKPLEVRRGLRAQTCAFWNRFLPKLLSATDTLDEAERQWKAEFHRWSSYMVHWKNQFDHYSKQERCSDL
# [1] = target: Acetylcholinesterase and butyrylcholinesterase (AChE and BChE) (Rattus norvegicus) (UniProt P37136+Q9JKC1); assay: Ratio of inhibitory concentration for AChE and BChE; format: protein assay
# Butyrylcholinesterase = Butyrylcholinesterase (Rattus norvegicus, UniProt Q9JKC1); assay: Inhibitory concentration against butyrylcholinesterase from rat serum
# Chain of Butyrylcholinesterase (Q9JKC1 whole entry): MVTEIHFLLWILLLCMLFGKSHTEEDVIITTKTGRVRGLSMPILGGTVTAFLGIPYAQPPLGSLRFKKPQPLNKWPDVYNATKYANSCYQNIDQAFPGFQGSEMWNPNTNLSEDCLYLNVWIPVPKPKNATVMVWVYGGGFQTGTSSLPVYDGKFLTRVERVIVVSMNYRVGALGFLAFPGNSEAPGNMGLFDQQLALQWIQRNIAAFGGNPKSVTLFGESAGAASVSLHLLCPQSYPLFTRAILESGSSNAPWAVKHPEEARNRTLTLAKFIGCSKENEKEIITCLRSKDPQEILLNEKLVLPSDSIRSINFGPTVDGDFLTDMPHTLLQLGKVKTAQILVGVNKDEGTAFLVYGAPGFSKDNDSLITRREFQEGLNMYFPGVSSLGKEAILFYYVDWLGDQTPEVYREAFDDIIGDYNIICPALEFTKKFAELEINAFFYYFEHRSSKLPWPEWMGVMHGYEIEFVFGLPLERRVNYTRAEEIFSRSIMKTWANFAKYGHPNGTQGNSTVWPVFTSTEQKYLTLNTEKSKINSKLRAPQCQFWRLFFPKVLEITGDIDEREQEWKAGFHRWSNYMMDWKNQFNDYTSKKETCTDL
# Chain of Acetylcholinesterase and butyrylcholinesterase (AChE and BChE) (Rattus norvegicus) (Q9JKC1 1-597, one chain of several): as the sequence (Q9JKC1 whole entry) above
SMILES,IC50 (Acetylcholinesterase) [µM],Selectivity [1],IC50 (Butyrylcholinesterase) [µM]
CC1=CC2Cc3[nH]c(=O)ccc3[C@@]3(C1)[C@@H]2CCCN3C(=O)CN(C)CCc1ccccc1,23.5,,
CC1=C[C@H]2Cc3nc(O)ccc3[C@@]3(C1)[C@@H]2CCCN3C(=O)N1CCN(Cc2cccnc2)CC1,38.1,,
COc1ccc(CN2CCN(CN3CCC[C@@H]4[C@H]5C=C(C)C[C@]43c3ccc(O)nc3C5)CC2)cc1,10.3,,
CC1=C[C@H]2Cc3nc(O)ccc3[C@@]3(C1)[C@@H]2CCCN3CCN1CCN(Cc2cccnc2)CC1,26.7,,
CC1=C[C@H]2Cc3nc(O)ccc3[C@@]3(C1)[C@@H]2CCCN3CCN(C)Cc1ccccc1,66.5,,
CC1=C[C@H]2Cc3nc(O)ccc3[C@@]3(C1)[C@@H]2CCCN3C(=O)CN(Cc1ccccc1)c1ccccc1,> 52,,
CC1=CC2Cc3[nH]c(=O)ccc3[C@@]3(C1)[C@@H]2CCCN3CCN1CCN(CC[N+]2(C(=O)CN)CCC[C@@H]3C4C=C(C)C[C@]32c2ccc(=O)[nH]c2C4)CC1 (stereo partly drawn),0.407,472,192
COc1ccc(CN2CCN(CC(=O)N3CCC[C@@H]4C5C=C(C)C[C@]43c3ccc(=O)[nH]c3C5)CC2)cc1,5.75,,
CC1=C[C@H]2Cc3[nH]c(=O)ccc3[C@@]3(C1)[C@@H]2CCCN3CCN(Cc1ccccc1)c1ccccc1,> 54,,
CC1=C[C@H]2Cc3nc(O)ccc3[C@@]3(C1)[C@@H]2CCCN3CCN(C)CCCc1ccccc1,9.53,,
CC1=C[C@H]2Cc3[nH]c(=O)ccc3[C@@]3(C1)[C@@H]2CCCN3C(=O)CN(C)Cc1ccccc1,50.7,,
CC1=C[C@H]2Cc3[nH]c(=O)ccc3[C@@]3(C1)[C@@H]2CCCN3C(=O)CN1CCCN(CC(=O)N2CCC[C@@H]3[C@H]4C=C(C)C[C@]32c2ccc(=O)[nH]c2C4)CC1,0.114,1500,171
CC1=CC2Cc3[nH]c(=O)ccc3[C@@]3(C1)[C@@H]2CCCN3C(=O)CN1CCN(Cc2ccc([N+](=O)[O-])cc2)CC1,5.58,,
CC1=CC2Cc3[nH]c(=O)ccc3[C@@]3(C1)[C@@H]2CCCN3C(=O)CN(C)CCCc1ccccc1,6.19,,
CC1=C[C@H]2Cc3[nH]c(=O)ccc3[C@@]3(C1)[C@@H]2CCCN3C(=O)CN1CCN(CC(=O)N2CCC[C@@H]3[C@H]4C=C(C)C[C@]32c2ccc(=O)[nH]c2C4)CC1,1.17,> 157,> 184
CC1=C[C@H]2Cc3nc(O)ccc3[C@@]3(C1)[C@@H]2CCCN3CN1CCN(Cc2ccccc2)CC1,31.6,,
CC1=CC2Cc3[nH]c(=O)ccc3[C@@]3(C1)[C@@H]2CCCN3C(=O)CN1CCN(Cc2ccccc2)CC1,33.3,,
CC1=C[C@H]2Cc3[nH]c(=O)ccc3[C@@]3(C1)NCCC[C@H]23,,,157
CC1=C[C@H]2Cc3nc(O)ccc3[C@@]3(C1)[C@@H]2CCCN3CCN(C)CCc1ccccc1,20.7,,
CC1=C[C@H]2Cc3[nH]c(=O)ccc3[C@@]3(C1)[C@@H]2CCCN3CCN1CCCN(CCN2CCC[C@@H]3[C@H]4C=C(C)C[C@]32c2ccc(=O)[nH]c2C4)CC1,0.218,573,125
